{"source": "patent US20240041976A1", "about": "“COMPOSITION AND USE” (priority 2020, published 2024)", "experiment_in_all_cases": "Planktonic cell growth inhibition assay (MIC50, liquid culture)", "format_in_all_cases": "cell-based, Staphylococcus aureus", "key": {"[1]": {"system": "S. aureus USA 300", "protocol": "(§1) Growth inhibition assays were performed in 96-well microtiter plates as described previously (Chi and Holo, 2018, supra). Briefly, 135 μl of TSB were dispensed in each well of a microtiter plate (according to the number of bacterial strains tested) except in the wells of the first row. The antimicrobials were diluted in TSB to working concentrations in a final volume of 285 μl and dispensed in the wells of the first row. The working concentrations were 100 μg/μl for garvicin KS, 10 μg/μl for micrococcin P1 and 1 mg/ml for penicillin G. From the first row, 150 μl of the antimicrobials were then serially diluted (two-fold dilutions) in a sequential fashion until the last row of the plate. Finally, 15 μl of a fresh O/N culture of each strain were added in the appropriate wells to reach a final volume of 150 μl in each well. The plates were then incubated at 37° C. for 24 h. The growth inhibition was expressed as minimum inhibitory concentration (MIC50), which refers to the minimum concentration of the antimicrobial needed to reduce at least 50% of the microbial growth compared to the untreated control. The MIC50 was assessed by optical density readings at 600 nm (O.D.600).\n(§2) Synergistic interactions between antimicrobials were determined using the fractional inhibition concentration (FIC). The FIC values were calculated as follows: the sum of the FIC =FICa+FICb+FICc, where the FICa means MIC of A in combination/MIC of A alone, FICb means MIC of B in combination/MIC of B, and FICc means MIC of C in combination/MIC of C alone. Effects were considered as synergistic if FIC was ≤0.5 for two components mixture and ≤0.75 for three components mixture."}, "[2]": {"system": "S. aureus ATTC 29213", "protocol": "as §1, §2"}, "[3]": {"system": "S. aureus ATTC 33591", "protocol": "as §1, §2"}, "[4]": {"system": "S. aureus Newman", "protocol": "as §1, §2"}, "[5]": {"system": "S. aureus ATTC 10832", "protocol": "as §1, §2"}, "[6]": {"system": "S.a. 3255", "protocol": "as §1, §2"}, "[7]": {"conditions": "garvicin KS + micrococcin P1 + penicillin G"}, "[8]": {"conditions": "Staphylococcus aureus, individual component, read-out: MIC50"}}, "data": [{"smiles": "CC1(C)S[C@@H]2[C@H](NC(=O)Cc3ccccc3)C(=O)N2[C@H]1C(=O)O", "note": "[Penicillin G]", "values": [{"measurement": "MIC50", "setting": "[1]; Staphylococcus aureus, USA300, individual component, read-out: MIC50", "value": "> 1000", "unit": "µg/mL"}, {"measurement": "MIC50 of the component in combination", "setting": "[1]; [7]", "value": 63, "unit": "µg/mL"}, {"measurement": "MIC50 of the component in combination", "setting": "[1]; garvicin KS + penicillin G", "value": 250, "unit": "µg/mL"}, {"measurement": "MIC50", "setting": "[2]; Staphylococcus aureus, ATTC29213, individual component, read-out: MIC50", "value": 130, "unit": "µg/mL"}, {"measurement": "MIC50 of the component in combination", "setting": "[2]; [7]", "value": 31, "unit": "µg/mL"}, {"measurement": "MIC50 of the component in combination", "setting": "[2]; garvicin KS + penicillin G", "value": 130, "unit": "µg/mL"}, {"measurement": "MIC50", "setting": "[3]; Staphylococcus aureus, ATTC33591, individual component, read-out: MIC50", "value": "> 1000", "unit": "µg/mL"}, {"measurement": "MIC50 of the component in combination", "setting": "[3]; [7]", "value": 130, "unit": "µg/mL"}, {"measurement": "MIC50 of the component in combination", "setting": "[3]; garvicin KS + penicillin G", "value": 500, "unit": "µg/mL"}, {"measurement": "MIC50", "setting": "[4]; [8]", "value": "< 7.8", "unit": "µg/mL"}, {"measurement": "MIC50 of the component in combination", "setting": "[4]; [7]", "value": "<7.8", "unit": "µg/mL"}, {"measurement": "MIC50 of the component in combination", "setting": "[4]; garvicin KS + penicillin G", "value": "<7.8", "unit": "µg/mL"}, {"measurement": "MIC50", "setting": "[5]; Staphylococcus aureus, ATTC10832, individual component, read-out: MIC50", "value": "< 7.8", "unit": "µg/mL"}, {"measurement": "MIC50 of the component in combination", "setting": "[5]; [7]", "value": "<7.8", "unit": "µg/mL"}, {"measurement": "MIC50 of the component in combination", "setting": "[5]; garvicin KS + penicillin G", "value": "<7.8", "unit": "µg/mL"}, {"measurement": "MIC50", "setting": "[6]; [8]", "value": "< 7.8", "unit": "µg/mL"}, {"measurement": "MIC50 of the component in combination", "setting": "[6]; [7]", "value": "<7.8", "unit": "µg/mL"}, {"measurement": "MIC50 of the component in combination", "setting": "[6]; garvicin KS + penicillin G", "value": "<7.8", "unit": "µg/mL"}]}]}
